# Results reported in patent US7893108B2, “Antiviral methods and compositions” (priority 2004, dated 2011).
# Where “and” joins values, the source holds several entries; their conditions need not be identical. Equal values may be shown once. Read-outs that look alike come from different tables or passages of the source.
# Tests used:
# UL54 plus GST-UL44ΔC290 = molecular target: T1, UL54 plus GST-UL44ΔC290 (Human cytomegalovirus, UniProt P16790); assay: long-chain DNA synthesis by UL54 in the presence of UL44; assay type: biochemical, HCMV; conditions: for inhibition of long-chain DNA synthesis by UL54 and UL44: dose-response; for inhibition of long-chain DNA synthesis by UL54 and UL44 at one concentration: 40 μM
# T1 construct: GST-UL44ΔC290 fusion protein, which contains the N-terminal 290 residues of HCMV UL44; made in house; host or cells: UL54: in vitro transcription/translation; GST-UL44ΔC290: E. coli BL21 (DE3)pLysS
# T1 sequence (P16790 1-290, stated change not applied): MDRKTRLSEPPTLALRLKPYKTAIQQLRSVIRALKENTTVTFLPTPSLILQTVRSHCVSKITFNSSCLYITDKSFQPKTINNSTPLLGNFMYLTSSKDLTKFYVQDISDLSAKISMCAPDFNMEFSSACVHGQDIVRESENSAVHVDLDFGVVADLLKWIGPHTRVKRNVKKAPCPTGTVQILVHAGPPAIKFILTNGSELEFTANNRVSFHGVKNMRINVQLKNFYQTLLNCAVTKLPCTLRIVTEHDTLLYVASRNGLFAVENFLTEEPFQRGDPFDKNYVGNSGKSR
# Method: To analyze the ability of the compounds to interfere with functional UL54-UL44 interactions, we tested their ability to inhibit long-chain DNA synthesis by UL54 in the presence of UL44 employing a poly(dA)-oligo(dT)12-18 template-primer.
# DNA polymerase assays. The effects of compounds were tested in an assay that measures long-chain DNA synthesis as described in Loregian et al. (Loregian et al., 2004a), with 5 μl of in vitro-transcribed and -translated UL54 plus 800 fmol of GST-UL44ΔC290 in the absence or in the presence of various amounts of each compound.
# The effect of the compounds was also tested in an assay that measures long chain (Lc) DNA synthesis as described in Loregian et al., J. Virol. […]
# HCMV AD169 = assay: virus yield reduction assay; assay type: cell-based, human cytomegalovirus
# Method: Next, we tested the effects of selected compounds and of GCV as a control in viral yield assays, which measure the titer of virus progeny produced following infection at relatively high multiplicity. In these assays, the viral titer was measured at two different times points post-infection (p.i.): at 96 hrs, when the release of virus progeny is increasing, and at 120 hrs, when the titer of virus progeny after a single cycle of replication reaches peak levels (Stinski, 1983).
# (§1) For yield reduction assays, HFF cells were plated at 2×10^4 cells per well in 96-well cluster dishes, incubated overnight, and infected with HCMV AD169 at a multiplicity of infection (MOI) of 1. After virus adsorption for 2 hr at 37° C., cells were washed and incubated with 200 μl of fresh media containing test compounds at increasing drug concentration. Plates were incubated for 3 or 5 days at 37° C. and subjected to one cycle of freezing and thawing, and titers were determined by transferring 100-μl aliquots from each of the wells to a fresh 96-well monolayer culture of HFF cells followed by 1:5 serial dilution across the plate. Cultures were incubated for 7 days, cells were stained, and the numbers of plaques were determined as described above.
# as §1, with “The effect of the compounds was assessed in an assay of virus yield. In this assay, cells are infected at a relatively high multiplicity of infection (about one per cell) and then drug is added. The virus produced at the different times post infection is measured. 120 hrs. is about the peak titer. This assay was conducted as follows.” for “For yield reduction assays,”, “20,000” for “2×10^4”, “an MOI” for “a multiplicity of infection (MOI)”, “0.1, 0.3, 1, 3, 10, 30 μM” for “increasing”
# [1] = molecular target: T2, full-length UL54 / UL44 interaction (Human cytomegalovirus, UniProt P16790); assay: UL54-UL44 interaction ELISA; assay type: binding, HCMV; conditions: concentrations up to 200 μM
# T2 construct: made in house; host or cells: baculovirus expression; proteins provided by H. S. Marsden (Institute of Virology, Glasgow)
# T2 sequence (P16790 whole entry): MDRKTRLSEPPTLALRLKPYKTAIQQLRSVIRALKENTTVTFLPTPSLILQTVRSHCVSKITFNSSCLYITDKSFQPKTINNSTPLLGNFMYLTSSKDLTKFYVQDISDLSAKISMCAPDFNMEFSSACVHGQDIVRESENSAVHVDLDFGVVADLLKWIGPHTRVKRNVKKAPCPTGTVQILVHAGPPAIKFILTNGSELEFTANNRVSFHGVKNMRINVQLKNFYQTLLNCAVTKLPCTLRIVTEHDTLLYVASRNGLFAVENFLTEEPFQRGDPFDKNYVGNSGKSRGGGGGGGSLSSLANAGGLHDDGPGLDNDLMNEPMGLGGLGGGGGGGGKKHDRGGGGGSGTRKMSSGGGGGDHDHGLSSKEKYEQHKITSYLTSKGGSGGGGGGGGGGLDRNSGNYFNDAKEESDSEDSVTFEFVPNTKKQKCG
# Method: In this assay, binding between purified baculovirus-expressed UL54 and UL44, which was tagged with an EEF epitope, was detected using an antibody that recognizes the epitope tag (Loregian et al., 2003).
# UL54-UL44 interaction ELISA. This assay was conducted as described in (Loregian et al., 2003), testing various concentrations of each compound. After final washes, the chromogenic substrate 2,2′-azino-bis(3-ethylbenzothiazoline-6-sulphonic acid (ABTS, Pierce) in citrate phosphate buffer (pH 4.0) containing 0.01% hydrogen peroxide was added and absorbance was read at 405 nm on a Victor plate reader (Wallac).
# Another assay that was used to test the effect of the compounds on the interaction of UL44 and UL54 is an ELISA interaction assay, which measures the interaction of the two full length proteins with each other. This assay was conducted as described in Loregian et al., J. Virol. 2003, 77:8336-8344, testing different concentrations (0, 3.12, 6.25, 12.5, 25, 50, 100, 200 μM) of each compound.
# HCMV strain AD169 = assay: plaque reduction assay; assay type: cell-based, human cytomegalovirus; conditions: HFF cells; 0-30 μM
# Method: Antiviral assays. Plaque reduction assays were performed essentially as follows: HFF (human foreskin fibroblast) cells were seeded at 2×10^5 cells per well in 24-well cluster dishes. The next day, cells were infected with HCMV (strain AD169) at 80 PFU per well in DMEM plus 5% fetal bovine serum (FBS) at 37° C. Two hours post-infection, the inocula were removed, cells were washed, and media containing various drug dilutions, 5% FBS, and 0.6% methylcellulose were added. All drug dilutions were tested at least in duplicate. After incubation at 37° C. for 10-11 days, cell monolayers were stained with crystal violet and plaques were counted under light microscopy.
# The effect of the compounds was assessed in a plaque reduction assay that measures the number of plaques formed in the presence of varying concentrations of a drug, as follows. HFF were seeded at 2×10^5 cells per well in 24-well cluster dishes. The next day, they were infected with HCMV AD169 at 80 PFU per well in DMEM plus 5% FBS at 37° C. Two hr post-infection, the inocula were then removed, cells were washed, and media containing selected drug dilutions (0, 0.1, 0.3, 1, 3, 10, 30 μM), and 5% FBS and 0.6% methylcellulose were added. All drug dilutions were tested at least in duplicate. After incubation at 37° C. for 10-11 days, cell monolayers were stained with crystal violet and plaques were enumerated under light microscopy.
# HFF cells = assay: XTT cytotoxicity assay; assay type: cell-based, human
# Method: Cytotoxicity assays. HFF cells were seeded at 2×10^4, 4×10^3, or 10^3 cells per well into 96-well plates and, after a 3-hr incubation to allow cell attachment, were treated for 24, 72, or 120 hr, respectively, with various concentrations of each compound in duplicate. Cell viability was then determined with an XTT assay (Roche Molecular Biochemicals) according to the manufacturer's protocol by using a Victor plate reader (Wallac).
# The cytotoxicity of the compounds was measured in an XTT assay. XTT is a compound that is converted to a product that can be measured […], but only by viable cells. This assay is as follows. HFF (human foreskin fibroblasts) cells were seeded at different concentrations into 96-well plates and treated with various concentrations (from 0 to 200 μM) of each compound in duplicate for 24, 72 or 120 hr. Cell viability was then determined with an XTT assay (Roche Molecular Biochemicals) according to the manufacturer's protocol by using a Victor plate reader (Wallac).
# [2] = molecular target: T3, GST-UL44ΔC290 / UL54-derived peptide interaction (Human cytomegalovirus, UniProt P16790); assay: biochemical; assay type: binding, HCMV; conditions: 2.5 μM GST-UL44ΔC290 and 3 nM labeled peptide
# T3 construct: GST-UL44ΔC290 fusion protein, which contains the N-terminal 290 residues of HCMV UL44; made in house; host or cells: E. coli BL21 (DE3)pLysS
# T3 sequence (P16790 1-290, stated change not applied): as the sequence (P16790 1-290, stated change not applied) above
# Excerpt: To identify small molecule inhibitors of the UL54-UL44 interaction, we developed an assay based on fluorescence polarization (FP) (Dandliker et al., 1981). In this assay, a peptide corresponding to the C-terminal 22 residues of UL54 (here named peptide 1, as in Loregian et al. (Loregian et al., 2003)), which was labeled with the fluorophore Oregon Green, is mixed with UL44ΔC290, a truncated protein which retains all known biochemical activities of full-length UL44 (Loregian et al., 2004b), fused to glutathione S-transferase (GST-UL44ΔC290).
# We next investigated whether this assay could detect a known inhibitor of the UL54-UL44 interaction. To this end, a binding reaction of 2.5 μM GST-UL44ΔC290 and 3 nM labeled peptide was titrated with increasing concentrations of unlabeled peptide 1 (FIG. 4B).
# FP assays. Unless otherwise indicated, […] of Oregon Green-labeled peptide 1 was added to 2.5 μM GST-UL44ΔC290 in 50 mM Tris-HCl (pH 7.5), 2 mM dithiothreitol, 0.5 mM EDTA, 150 mM NaCl, 4% glycerol and 100 μg/ml bovine serum albumin and kept on ice until the mix was distributed into black 384-well plates (Nunc) in a total volume of 40 μl per well. For high throughput screening, small molecules (5 mg/ml in DMSO) of the Maybridge, Bionet, Peakdale, ChemDiv, and Chembridge Microformat libraries were obtained from the ICCB, and 100 nl of each compound were transferred to individual wells using 384-pin arrays. All compounds were tested in duplicate. As controls, reaction mixtures containing either labeled peptide 1 only, or GST-UL44ΔC290 plus labeled peptide 1 (no compound), or GST-UL44ΔC290 plus labeled peptide 1 in the presence of 3 μM or 20 μM of unlabeled peptide 1, were included on each screening plate. After 15-min incubation at room temperature, FP values were determined by using an Analyst plate reader (LJL Biosystems) at the ICCB.
# A fluorescence polarization (FP) assay was used to identify compounds that inhibit HCMV polymerase subunit interactions. Compounds from the Harvard Institute of Chemistry and Cell Biology (ICCB, Harvard Medical School) were screened as follows. 3 nM of a synthetic peptide corresponding to the C-terminal 22 residues of HMCV UL54 (termed peptide 1 in Loregian et al., J. Virol. 2003, 77:8336-8344) and N-terminally labeled with Oregon Green was added to 2.5 μM GST-UL44ΔC290 in 50 mM Tris-HCl (pH 7.5), 2 mM DTT, 0.5 mM EDTA, 150 mM NaCl, 4% Glycerol and 100 μg/ml bovine serum albumin and kept on ice until the mix was distributed into black 384-well plates (Nunc) in a total volume of 40 μl per well. […] After 5-min incubation at room temperature, the FP values were determined by using an Analyst plate reader (LJL Biosystems) at the ICCB. […]
# [3] = IC50 for inhibition of FP (UL44-UL54 peptide interaction)
# [4] = read-out: IC50 for inhibition of FP (UL44-UL54 peptide interaction)
smiles,measurement,setting,value
CCOc1cc(C2C(C#N)=C(N)Oc3n[nH]c(-c4ccccc4)c32)cc([N+](=O)[O-])c1O (stereo not shown) [AL1],inhibition of long-chain DNA synthesis by UL54 and UL44,UL54 plus GST-UL44ΔC290,little or no inhibition
same,effect on virus yield / HCMV replication,HCMV AD169,little or no effect
CCOc1cc(C2C(C#N)=C(N)Oc3n[nH]c(-c4ccc(Cl)cc4)c32)cc([N+](=O)[O-])c1O (stereo not shown) [AL3],inhibition of long-chain DNA synthesis by UL54 and UL44,UL54 plus GST-UL44ΔC290,little or no inhibition
same,inhibition of the UL54-UL44 physical interaction,[1],did not significantly inhibit
same,effect on virus yield / HCMV replication,HCMV AD169,little or no effect
CCOc1cc(C2C(C#N)=C(N)Oc3n[nH]c(-c4cc(OC)c(OC)c(OC)c4)c32)cc([N+](=O)[O-])c1O (stereo not shown) [AL4],effect on virus yield / HCMV replication,HCMV AD169; HFF cells,little or no effect
Cn1c(=O)cc2c3c(c(N4CCCCC4)ccc31)C(=O)c1ccccc1-2 [AL5],inhibition of long-chain DNA synthesis by UL54 and UL44 at one concentration,UL54 plus GST-UL44ΔC290,severely decreased formation of long DNA products
same,inhibition of long-chain DNA synthesis by UL54 and UL44,UL54 plus GST-UL44ΔC290,relatively low IC50s
same,inhibition of the UL54-UL44 physical interaction,[1],potent
same,IC50s in plaque reduction assay,HCMV strain AD169,relatively low IC50s
same,effect on virus yield / HCMV replication,HCMV AD169,relatively low IC50s
same,cytotoxic concentration relative to antiviral concentration,HFF cells,7-500 fold
same,cytotoxicity,HFF cells,relatively high CC50's
COc1ccccc1C=C1N=C(c2ccc(OC)c(OC)c2)N(c2cccc(F)c2)C1=O [AL6],cytotoxicity,HFF cells,significant cytotoxicity
Cc1ccc(-c2nc3nc(-c4ccc(Br)cc4)cn3nc2-c2ccc(C)cc2)cc1 [AL8],IC50,[2]; [3],< 50 µM and 5 to 30 µM
same,inhibition of long-chain DNA synthesis by UL54 and UL44,UL54 plus GST-UL44ΔC290,inactive
CCN1C=CC(=CC=Cc2ccc3ccccc3[n+]2CC)c2ccccc21 [AL10],IC50,[2]; [3],< 50 µM and 5 to 30 µM
same,cytotoxicity,HFF cells,significant cytotoxicity
CCn1c2ccccc2c2cc3cc4ccccc4cc3cc21 [AL11],cytotoxicity,HFF cells,significant cytotoxicity
O=c1c2cccc3cccc(c32)c2nc3ccccc3n12 [AL12],inhibition of long-chain DNA synthesis by UL54 and UL44 at one concentration,UL54 plus GST-UL44ΔC290,severely decreased formation of long DNA products
same,inhibition of long-chain DNA synthesis by UL54 and UL44,UL54 plus GST-UL44ΔC290,relatively low IC50s
same,inhibition of the UL54-UL44 physical interaction,[1],potent
same,IC50s in plaque reduction assay,HCMV strain AD169,relatively low IC50s
same,effect on virus yield / HCMV replication,HCMV AD169; HFF cells,relatively low IC50s
same,cytotoxic concentration relative to antiviral concentration,HFF cells,7-500 fold
same,cytotoxicity,HFF cells,relatively high CC50's
CN(C)c1ccc2nc3c(=O)[nH]c(=O)[nH]c3nc2c1 [AL13],IC50,[2]; [4],50 µM
same,cytotoxicity,HFF cells,significant cytotoxicity
CNC(=S)NN=Cc1cc(Br)ccc1O [AL14],cytotoxicity,HFF cells,significant cytotoxicity
O=C1CC(=O)c2c1cccc2[N+](=O)[O-] [AL15],IC50,[2]; [4],60 µM
O=C1c2cccc3c([N+](=O)[O-])ccc(c23)C(=O)N1Cc1cccnc1 [AL19],cytotoxicity,HFF cells,significant cytotoxicity
